In this assay the target is T1, P2X purinoceptor 4 (Rattus norvegicus, UniProt P51577).
T1 sequence (P51577 whole entry): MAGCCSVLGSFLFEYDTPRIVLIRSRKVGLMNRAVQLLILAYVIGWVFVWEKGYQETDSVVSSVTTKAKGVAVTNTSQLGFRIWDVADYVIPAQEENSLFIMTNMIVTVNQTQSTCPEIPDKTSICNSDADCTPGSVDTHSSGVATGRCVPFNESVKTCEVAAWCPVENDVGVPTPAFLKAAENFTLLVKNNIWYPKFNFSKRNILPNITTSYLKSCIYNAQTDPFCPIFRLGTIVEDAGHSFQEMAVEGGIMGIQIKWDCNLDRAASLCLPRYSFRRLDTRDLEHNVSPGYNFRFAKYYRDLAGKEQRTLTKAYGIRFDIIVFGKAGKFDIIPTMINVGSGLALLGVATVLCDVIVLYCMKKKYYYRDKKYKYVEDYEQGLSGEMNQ
Put plainly: Antagonist activity at rat P2X4R expressed in HEK293 cells preincubated for 2 mins followed by ATP addition and measured after 4 mins. In kind it is cell-based.

With `O=C1CN=C(c2cccc(Br)c2)c2oc3ccccc3c2N1`, the IC50 – broadly, the concentration that inhibits the measured activity by half – was determined as 750 nM.

The record behind these values is ChEMBL document CHEMBL5104186, “Structure-Activity Relationship and Neuroprotective Activity of 1,5-Dihydro-2H-naphtho[1,2-b][1,4]diazepine-2,4(3H)-diones as P2X4 Receptor Antagonists” (J Med Chem, 2022).
